Data taken from publication PMC8764113 (Nature Communications, 2022).
Where two headings read alike, the source gives them in different places.

Experiments:
PECPS = experiment: Standard PECPS enzyme reaction, acceptance of starter-CoA; format: biochemical, Aquilaria sinensis; details: condensation with 4-hydroxyphenylpropionyl-β-diketide acid
Experimental: The standard reaction mixture contained 26 nmol of starter-CoA (4-hydroxyphenylpropionyl-CoA/benzoyl-CoA/phenylpropionyl-CoA/2-hydroxybenzoyl-CoA/3-hydroxybenzoyl-CoA/4-hydroxybenzoyl-CoA), 29 nmol of malonyl-CoA/benzoyl-β-diketide acid/4-hydroxyphenylpropionyl-β-diketide acid (note: before β-diketide acids were added to the reaction buffer, they were first dissolved in dimethyl sulfoxide to a final concentration of 2.9 mM), and 0.4 nmol of the purified recombinant enzyme, in 100 mM KPB (pH 7.5) for a final volume of 500 μL. Incubations were performed at 37 °C for 12 h and terminated by the addition of 20 μL of 20% HCl. The reaction solution was then extracted three times with 800 μL of ethyl acetate. The organic layers were combined, evaporated to dryness with nitrogen, and dissolved in 50 μL of MeOH for LCMS-IT-TOF (Shimadzu, Japan) analysis. The HPLC was equipped with an Agilent Eclipse XDB C18 column (250 × 4.6 mm I.D., 5 μm) and eluted at a flow rate of 1.0 mL/min. For the standard assay, gradient elution was performed with H2O and acetonitrile: 0–10 min, 30% acetonitrile; 10–20 min, 30–60% acetonitrile; 20–25 min, 60–70% acetonitrile; 25–30 min, 70–80% acetonitrile; 30–35 min, 80–100% acetonitrile; 35–40 min, 100% acetonitrile.

[1] = tested on: PECPS protein expression in A. sinensis calli; details: 150 mM NaCl-treated calli
Experimental: GAPDH was used as internal reference. d Western blot quantification of the relative expression levels of PECPS by ImageJ and normalization to the protein levels of GAPDH. Data represent the mean ± SD (n = 3). Statistical analysis was performed with unpaired two-tailed Student’s t-tests. Significance is shown with asterisks: ****p < 0.0001, ***p < 0.001, **p < 0.01. Exact p-values and source data are provided in the source data file. Total protein was extracted from 100 mg of calli using Plant Total Protein Extraction Reagent (Invent, USA) according to the manufacturer’s instructions. The protein expression levels of PECPS were analyzed by Western blotting with an anti-PECPS antibody prepared in rabbits.

[2] = tested on: PECPS expression in A. sinensis calli; details: NaCl-treated calli
Experimental: Considering that PECs contain a phenylethyl moiety, 4-hydroxyphenylpropionyl-CoA, rather than p-coumaroyl-CoA, was deliberately selected as the starter substrate for the reaction with malonyl-CoA, a canonical chain extender for PKSs, and the recombinant PECPS. […] The construction of a C6–C5–C6 scaffold by coincubation of benzoyl-CoA, malonyl-CoA, and 4-hydroxyphenylpropionyl-CoA was attempted.

wild type PECPS = wild type PECPS (Aquilaria sinensis, UniProt A0A385MEG6); experiment: ITC binding to wild type PECPS; details: ITC, 100 mM KPB pH 7.5, 37 °C, mean ± SD (n = 3)
wild type PECPS, sequence (A0A385MEG6 entry or part of it): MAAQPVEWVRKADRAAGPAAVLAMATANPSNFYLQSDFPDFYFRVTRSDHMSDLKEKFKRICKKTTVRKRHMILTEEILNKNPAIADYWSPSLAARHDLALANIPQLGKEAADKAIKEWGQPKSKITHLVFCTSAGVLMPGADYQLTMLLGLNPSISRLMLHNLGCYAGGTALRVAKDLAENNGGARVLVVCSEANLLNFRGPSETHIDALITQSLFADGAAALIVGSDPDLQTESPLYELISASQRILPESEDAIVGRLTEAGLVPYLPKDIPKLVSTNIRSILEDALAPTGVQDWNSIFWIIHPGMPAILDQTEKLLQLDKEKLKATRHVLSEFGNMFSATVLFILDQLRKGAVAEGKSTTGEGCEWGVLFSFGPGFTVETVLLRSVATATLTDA
Experimental: ITC measurements of affinity (KD), stoichiometry (n) and apparent enthalpy change (ΔH°) were obtained using a Nano LV ITC calorimeter (TA Instruments). Samples for cell and injectant solutions were prepared in the same buffer (100 mM KPB, pH 7.5). All experiments were conducted at 37 °C with a stirring speed of 240 rpm and a sequence of 20 injections of 2.5 μL and 380 s delays between succeeding injections. The sample cell was filled with 47–85 μM protein solution (300 μl), while 1.09 mM 4-hydroxyphenylpropionyl-CoA (or 1.15 mM benzoyl-CoA) solution was placed in the syringe. The resulting data were processed with the standard NanoAnalyze software package (version 3.11.0), assuming the model of one type of binding site with an apparent stoichiometry close to 1:1. The first injection resulting in a heat change was disregarded in the later analysis. Titration experiments were performed in triplicate to show reproducibility. Control experiments confirmed that the heats of dilution caused by the reactant being titrated into buffer and the buffer into protein solution were negligible. The heats of dilution for the sample in the cell were subtracted from the final trace before integration with respect to time. The thermodynamic data obtained from the traces were averaged across three runs, and a standard deviation was calculated. Representative ITC thermograms and isotherm plots for experiments can be found in Supplementary Fig. 35.

[3] = tested on: wild type N. benthamiana leaves; experiment: Infiltration of C6-C5-C6 substrates into wild type N. benthamiana leaves, LC-MS; format: in vivo, Nicotiana benthamiana
[4] = Non-enzymatic conversion of oxidoagarochromone C in aqueous methanol, HPLC; format: physicochemical; details: methanol aqueous solution, room temperature
Experimental: Figure 19. […]
HPLC chromatograms were recorded on an Agilent ZORBAXSB C18 column (250 mm × 4.6 mm, I.D., 5 μm) eluted with H2O and acetonitrile in an isocratic mode (0–30 min, 30% acetonitrile; flow rate 1.0 mL/min). Oxidoagarochromone C (S) was dissolved in 50% aqueous methanol and kept at room temperature. ATC-type PECs (1–5) converted from the substrate (S) via the non-enzymatic opening of the epoxy rings were readily apparent at 12 h and 36 h. Given that the structures of compounds 1-5 were tentatively identified by HRESI MS, the presence of methyl groups in compounds 2 and 5 is also possible on other hydroxyl groups formed by the opening of the epoxy rings, and the structures of 3 and 4 may be […]

[5] = target: 2-(2-phenylethyl)chromone precursor synthase (PECPS), wild type, recombinant (Aquilaria sinensis); experiment: SEC; purified recombinant PECPS; approximately 86 kDa against a calculated 43 kDa for the monomer (Supplementary Fig. 4b); column and buffer of this run not told
[6] = tested on: NaCl-stressed A. sinensis cells; experiment: Substrate feeding to NaCl-stressed A. sinensis suspension cells, LC-MS; format: cell-based, Aquilaria sinensis; details: NaCl-stressed A. sinensis cells fed with substrate
Experimental: To verify the aforementioned hypothesis that diarylpentanoid is the common precursor of PECs, substrate-feeding experiments were performed. First, a putative innate-substrate, 5-(4-hydroxyphenyl)-1-phenylpentane-1,3-dione (2), was fed to NaCl-stressed A. sinensis cells, and its metabolites were carefully analyzed by LC–MS. […] Next, the fluorine-containing nonphysiological substrate 5-(4-F-phenyl)-1-phenylpentane-1,3-dione (F-2) was fed to NaCl-stressed A. sinensis cells. As a result, 10 fluorinated PECs (C01–C10) were successfully obtained by LC–MS guided separation and purification (Fig. 2b and Supplementary Fig. 8), and the structures of C01–C06 were unequivocally determined by extensive spectroscopic techniques, including ^1H-NMR, ^13C-NMR and HRESI-MS (Supplementary Figs. 9–14 and Supplementary Tables 2 and 3). Unfortunately, attempts to elucidate the structures of compounds C07–C10 by NMR techniques were complicated by their small yields. […]
Robustly growing suspension cells (200 mL × 10) were treated with NaCl (final concentration 150 mM) and immediately fed the fluorine-labeled substrate F-2 (20 mg × 10). […] Fluorinated PECs could be detected from the crude residue by LC–MS (Supplementary Fig. 8). […]

CC(C)(COP(=O)(O)OP(=O)(O)OC[C@H]1O[C@@H](n2cnc3c(N)ncnc32)[C@H](O)[C@@H]1OP(=O)(O)O)[C@@H](O)C(=O)NCCC(=O)NCCSC(=O)c1ccc(O)cc1 [4-hydroxybenzoyl-CoA]
acceptance as starter by PECPS to produce the C6–C5–C6 scaffold (PECPS): could accept

[Cl-].[Na+] [NaCl]
Relative expression level of PECPS protein (PECPS/GAPDH), Mean ([1]; 0 h): 0.2667 | Relative expression level of PECPS protein (PECPS/GAPDH), Mean ([1]; 24 h): 0.4551 | Relative expression level of PECPS protein (PECPS/GAPDH), Mean ([1]; 48 h): 1.257 | Relative expression level of PECPS protein (PECPS/GAPDH), Mean ([1]; 72 h): 1.846 | Relative expression level of PECPS protein (PECPS/GAPDH), Mean ([1]; 96 h): 1.18 | Relative expression level of PECPS (qRT-PCR), Mean ([2]; 0 h): 0.3162 | Relative expression level of PECPS (qRT-PCR), Mean ([2]; 24 h): 0.7432 | Relative expression level of PECPS (qRT-PCR), Mean ([2]; 48 h): 2.33 | Relative expression level of PECPS (qRT-PCR), Mean ([2]; 72 h): 6.264 | Relative expression level of PECPS (qRT-PCR), Mean ([2]; 96 h): 1.556

CC(C)(COP(=O)(O)OP(=O)(O)OC[C@H]1O[C@@H](n2cnc3c(N)ncnc32)[C@H](O)[C@@H]1OP(=O)(O)O)[C@@H](O)C(=O)NCCC(=O)NCCSC(=O)c1ccccc1 [benzoyl-CoA]
Kd (wild type PECPS): ~1 mM

O=C(CCc1ccccc1)CC(=O)c1ccccc1 [1,5-diphenylpentane-1,3-dione]
biotransformation in wild type N. benthamiana leaves [3]: converted to PECs

CC(C)(COP(=O)(O)OP(=O)(O)OC[C@H]1O[C@@H](n2cnc3c(N)ncnc32)[C@H](O)[C@@H]1OP(=O)(O)O)[C@@H](O)C(=O)NCCC(=O)NCCSC(=O)c1cccc(O)c1 [3-hydroxybenzoyl-CoA]
acceptance as starter by PECPS to produce the C6–C5–C6 scaffold (PECPS): could accept

oxidoagarochromone C
products from the opening of the epoxy ring (non-enzymatic conversion to ATC-type PECs) [4]: readily detected

2-(2-phenylethyl)chromone precursor synthase (PECPS), wild type, recombinant (enzyme)
stoichiometry N [5]: 2

CC(C)(COP(=O)(O)OP(=O)(O)OC[C@H]1O[C@@H](n2cnc3c(N)ncnc32)[C@H](O)[C@@H]1OP(=O)(O)O)[C@@H](O)C(=O)NCCC(=O)NCCSC(=O)c1ccccc1O [2-hydroxybenzoyl-CoA]
acceptance as starter by PECPS to produce the C6–C5–C6 scaffold (PECPS): not accepted

O=C(CCc1ccc(O)cc1)CC(=O)c1ccccc1 [compound 2, 5-(4-hydroxyphenyl)-1-phenylpentane-1,3-dione]
accumulation of PECs (P1–P5) in substrate-fed cells [6]: visibly increased | biotransformation in wild type N. benthamiana leaves [3]: converted to PECs
